Measurements taken from ChEMBL document CHEMBL3885861, “Open TG-GATES”.

Organism: Rattus norvegicus
Assay: Open TG-GATES - Regimen: Single
Assay type: toxicity, organism-based, Sprague-Dawley
Design: regimen Single, gender Male, age 6 weeks
Settings: in vivo, po, 15 mg/kg, route gavage, dose level Low; for APTT / Bas / Eos / Fbg / Hb / Ht / Lym / MCH / MCHC / MCV / Mono / Neu / PT / Plat / RBC / Ret / WBC: tissue Blood; for KIDNEY_L / KIDNEY_R / KIDNEY_TOTAL: tissue Kidney; for LIVER: tissue Liver; for A/G / ALP / ALT / AST / BUN / CRE / Ca / Cl / DBIL / GLC / IP / K / LDH / Na / PL / RALB / TBIL / TC / TG / TP / gamma-GTP: tissue Plasma

With `O=c1ccc2ccccc2o1` [COUMARIN] the TERMINAL_BW (3 h) was 178.4 g, the APTT (3 h) was 16.5 s and the Bas (3 h) was 0%. For the same compound, the Eos (3 h) was 1%, the Fbg (3 h) was 205.2 mg/dL and the Hb (3 h) was 13.6 g/dL. It also gave a Ht (3 h) of 40.8%, a Lym (3 h) of 82.2% and an MCH (3 h) of 21.3 pg. For the same compound, the MCHC (3 h) was 33.4%, the MCV (3 h) was 63.7 fL and the Mono (3 h) was 3.8%. For the same compound, the Neu (3 h) was 13.4%, the PT (3 h) was 12.4 s and the Plat (3 h) was 97.1 x10_4/uL. It also gave an RBC (3 h) of 640 x10_4/ul, a Ret (3 h) of 8.2% and a WBC (3 h) of 97 x10_2/uL. It also gave a KIDNEY_L (3 h) of 0.8 g, a KIDNEY_R (3 h) of 0.8 g and a KIDNEY_TOTAL (3 h) of 1.7 g. It also gave an LIVER (3 h) of 8 g, an A/G (3 h) of 2 and an ALP (3 h) of 1069.4 IU/L. The ALT (3 h) was 41.6 IU/L, the AST (3 h) was 71.8 IU/L and the BUN (3 h) was 10.2 mg/dL. The CRE (3 h) was 0.4 mg/dL, the Ca (3 h) was 10.6 mg/dL and the Cl (3 h) was 105.6 meq/L. For the same compound, the DBIL (3 h) was 0.006 mg/dL, the GLC (3 h) was 182.4 mg/dL and the IP (3 h) was 10.4 mg/dL. It also gave a K (3 h) of 4.7 meq/L, an LDH (3 h) of 84.8 IU/L and a Na (3 h) of 138 meq/L. For the same compound, the PL (3 h) was 161.6 mg/dL, the RALB (3 h) was 3.9 g/dL and the TBIL (3 h) was 0.4 mg/dL. It also gave a TC (3 h) of 86 mg/dL, a TG (3 h) of 115 mg/dL and a TP (3 h) of 5.9 g/dL. It also gave a gamma-GTP (3 h) of 1.4 IU/L, a TERMINAL_BW (6 h) of 180.2 g and an APTT (6 h) of 16.4 s. For the same compound, the Bas (6 h) was 0%, the Eos (6 h) was 1.2% and the Fbg (6 h) was 189.2 mg/dL. For the same compound, the Hb (6 h) was 13.5 g/dL, the Ht (6 h) was 40.5% and the Lym (6 h) was 76%. For the same compound, the MCH (6 h) was 21.9 pg, the MCHC (6 h) was 33.2% and the MCV (6 h) was 65.9 fL. The Mono (6 h) was 5%, the Neu (6 h) was 18.4% and the PT (6 h) was 12.5 s. It also gave a Plat (6 h) of 109.6 x10_4/uL, an RBC (6 h) of 614.6 x10_4/ul and a Ret (6 h) of 9.4%. It also gave a WBC (6 h) of 95.4 x10_2/uL, a KIDNEY_L (6 h) of 0.8 g and a KIDNEY_R (6 h) of 0.8 g. The KIDNEY_TOTAL (6 h) was 1.7 g, the LIVER (6 h) was 8 g and the A/G (6 h) was 2.1. It also gave an ALP (6 h) of 872 IU/L, an ALT (6 h) of 33.6 IU/L and an AST (6 h) of 65 IU/L. For the same compound, the BUN (6 h) was 9 mg/dL, the CRE (6 h) was 0.4 mg/dL and the Ca (6 h) was 10.3 mg/dL. The Cl (6 h) was 107.2 meq/L, the DBIL (6 h) was 0.004 mg/dL and the GLC (6 h) was 189.6 mg/dL. It also gave an IP (6 h) of 10.4 mg/dL, a K (6 h) of 5.2 meq/L and an LDH (6 h) of 88 IU/L. It also gave a Na (6 h) of 138 meq/L, a PL (6 h) of 136 mg/dL and an RALB (6 h) of 3.7 g/dL. It also gave a TBIL (6 h) of 0.3 mg/dL, a TC (6 h) of 75.2 mg/dL and a TG (6 h) of 63 mg/dL. The TP (6 h) was 5.5 g/dL, the gamma-GTP (6 h) was 1.2 IU/L and the TERMINAL_BW (9 h) was 177.8 g. The APTT (9 h) was 16.1 s, the Bas (9 h) was 0% and the Eos (9 h) was 0.8%. It also gave a Fbg (9 h) of 198.2 mg/dL, a Hb (9 h) of 13.2 g/dL and a Ht (9 h) of 40.1%. It also gave a Lym (9 h) of 78.2%, an MCH (9 h) of 22 pg and an MCHC (9 h) of 33%. For the same compound, the MCV (9 h) was 66.6 fL, the Mono (9 h) was 6.4% and the Neu (9 h) was 14.6%. The PT (9 h) was 12.3 s, the Plat (9 h) was 103 x10_4/uL and the RBC (9 h) was 602 x10_4/ul. It also gave a Ret (9 h) of 8.7%, a WBC (9 h) of 85.8 x10_2/uL and a KIDNEY_L (9 h) of 0.8 g. The KIDNEY_R (9 h) was 0.9 g, the KIDNEY_TOTAL (9 h) was 1.7 g and the LIVER (9 h) was 7.2 g. The A/G (9 h) was 2.3, the ALP (9 h) was 849 IU/L and the ALT (9 h) was 30.6 IU/L. The AST (9 h) was 62 IU/L, the BUN (9 h) was 9.8 mg/dL and the CRE (9 h) was 0.5 mg/dL. It also gave a Ca (9 h) of 10.6 mg/dL, a Cl (9 h) of 106.8 meq/L and a DBIL (9 h) of 0.03 mg/dL. The GLC (9 h) was 195 mg/dL, the IP (9 h) was 11.6 mg/dL and the K (9 h) was 5.1 meq/L. The LDH (9 h) was 102 IU/L, the Na (9 h) was 139.4 meq/L and the PL (9 h) was 141 mg/dL. The RALB (9 h) was 3.8 g/dL, the TBIL (9 h) was 0.3 mg/dL and the TC (9 h) was 81.4 mg/dL. It also gave a TG (9 h) of 37.4 mg/dL, a TP (9 h) of 5.5 g/dL and a gamma-GTP (9 h) of 1.2 IU/L. The TERMINAL_BW (24 h) was 189.8 g, the APTT (24 h) was 15.7 s and the Bas (24 h) was 0%. It also gave an Eos (24 h) of 1%, a Fbg (24 h) of 208.2 mg/dL and a Hb (24 h) of 13.2 g/dL. It also gave a Ht (24 h) of 39.7%, a Lym (24 h) of 74.2% and an MCH (24 h) of 22.3 pg. For the same compound, the MCHC (24 h) was 33.3%, the MCV (24 h) was 66.9 fL and the Mono (24 h) was 10.6%. For the same compound, the Neu (24 h) was 14.2%, the PT (24 h) was 12.2 s and the Plat (24 h) was 102.6 x10_4/uL. For the same compound, the RBC (24 h) was 594.2 x10_4/ul, the Ret (24 h) was 8.2% and the WBC (24 h) was 102.3 x10_2/uL. The KIDNEY_L (24 h) was 0.9 g, the KIDNEY_R (24 h) was 0.9 g and the KIDNEY_TOTAL (24 h) was 1.8 g. It also gave an LIVER (24 h) of 9.3 g, an A/G (24 h) of 2.1 and an ALP (24 h) of 972.2 IU/L. The ALT (24 h) was 43 IU/L, the AST (24 h) was 68.2 IU/L and the BUN (24 h) was 14 mg/dL. For the same compound, the CRE (24 h) was 0.5 mg/dL, the Ca (24 h) was 10.9 mg/dL and the Cl (24 h) was 106.2 meq/L. The DBIL (24 h) was 0.01 mg/dL, the GLC (24 h) was 190.8 mg/dL and the IP (24 h) was 8.4 mg/dL. For the same compound, the K (24 h) was 5.2 meq/L, the LDH (24 h) was 97.4 IU/L and the Na (24 h) was 137.8 meq/L. It also gave a PL (24 h) of 140.4 mg/dL, an RALB (24 h) of 3.8 g/dL and a TBIL (24 h) of 0.3 mg/dL. It also gave a TC (24 h) of 76.8 mg/dL, a TG (24 h) of 77.2 mg/dL and a TP (24 h) of 5.7 g/dL. It also gave a gamma-GTP (24 h) of 1 IU/L.
